Laboratory results from US20260226041A1 (ARIGENX THERAPEUTICS CO., LTD., priority 2023, published 2026).
Where a name gives a salt, the structure may show the parent alone. Read-outs that look alike come from different tables or passages of the source.

What was measured:
human AHR = target: T1, human AHR (Homo sapiens, UniProt P35869); test: Human AHR agonist luciferase assay (CYP1A1 promoter Nano-luc reporter in HepG2 cells);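 further: stably transfected HepG2 clone, DRE-containing 1200 bp promoter region driving Nano-luc, treated 4 to 24 h with 11-point dilutions in tryptophan-free medium, medium-only wells as baseline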
T1 sequence (P35869 11-848): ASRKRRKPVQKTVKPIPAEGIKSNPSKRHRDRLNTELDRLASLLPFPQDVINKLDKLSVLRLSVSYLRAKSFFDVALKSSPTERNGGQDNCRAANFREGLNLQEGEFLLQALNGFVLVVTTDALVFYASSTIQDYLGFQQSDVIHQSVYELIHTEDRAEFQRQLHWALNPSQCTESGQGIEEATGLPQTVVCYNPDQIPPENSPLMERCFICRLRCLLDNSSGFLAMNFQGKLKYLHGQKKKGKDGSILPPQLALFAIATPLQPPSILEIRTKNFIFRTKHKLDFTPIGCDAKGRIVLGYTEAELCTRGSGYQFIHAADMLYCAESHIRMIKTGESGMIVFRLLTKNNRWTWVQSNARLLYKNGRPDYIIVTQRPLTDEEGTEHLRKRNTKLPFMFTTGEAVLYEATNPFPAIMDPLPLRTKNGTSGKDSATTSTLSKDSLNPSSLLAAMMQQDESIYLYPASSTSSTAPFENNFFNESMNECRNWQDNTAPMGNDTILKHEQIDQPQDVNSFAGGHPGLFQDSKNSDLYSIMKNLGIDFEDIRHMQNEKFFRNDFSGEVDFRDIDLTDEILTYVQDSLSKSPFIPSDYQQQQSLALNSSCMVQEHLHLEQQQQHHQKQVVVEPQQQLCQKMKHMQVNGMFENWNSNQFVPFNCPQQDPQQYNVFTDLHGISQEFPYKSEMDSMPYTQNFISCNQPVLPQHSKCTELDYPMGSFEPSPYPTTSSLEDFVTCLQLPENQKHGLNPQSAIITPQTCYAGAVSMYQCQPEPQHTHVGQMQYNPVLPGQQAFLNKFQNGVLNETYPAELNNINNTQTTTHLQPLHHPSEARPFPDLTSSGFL
Description: To detect AHR activation, a reporter gene plasmid was constructed by placing the gene sequence from −1200 bp to 0 bp upstream of CYP1A1 in front of a Nano-luc luciferase reporter gene according to conventional construction methods of reporter gene plasmids in the art. The reporter gene plasmid was transfected into human hepatoma HepG2 cells by a conventional liposome transfection method in the art, and stably expressing cells were selected by puromycin. The selected cells were diluted to a concentration of 5 cells/mL and seeded into a 96-well plate at 100 μL/well, and single clones were obtained after growth. A single clone with normal morphology, normal growth, and the highest induction signal was selected for the human AHR agonist luciferase assay.
On day one, the HepG2 monoclonal cell line stably expressing reporter gene was counted and seeded into a white opaque 96-well plate at a density of 1×10^4 cells per well −8×10^4 cells per well using 100 μL of complete medium without tryptophan and phenol red (minimal essential medium (MEM) without tryptophan and phenol red, 10% (v/v) fetal bovine serum, 1× non-essential amino acids, 1× sodium pyruvate, and 1× GlutaMax). The cells were cultured in an incubator maintained at 37° C. with 5% (v/v) CO2 for 24 hours.
Test compounds were prepared as 10 mmol/L stock solutions in dimethyl sulfoxide (DMSO) and stored at 4° C. protected from light. Before treatment, the compound stock solutions, positive control compounds (e.g., dioxin, 2-(1H-indole-3-carbonyl)thiazole-4-carboxylic acid methyl ester (ITE), or kynurenine), and a negative control compound (DMSO) were subjected to preliminary dilution (determined based on pre-experiments) with the complete medium without tryptophan and phenol red, followed by 3- to 20-fold serial dilutions to 11 concentration points to obtain 2× dilution solutions. When treating the cells, 50 μL of medium was first aspirated from the 96-well plate containing the seeded cells, and then 50 μL of the serially diluted 2× dilution solution was added. Each compound was tested in duplicate, and each duplicate experiment included a well with a concentration of 0 (i.e., containing only the medium) to determine the baseline. The reporter cells were returned to the incubator and incubated for 4 to 24 hours after treatment.
After treatment, 100 μL/well of Nano-Glo Luciferase Assay Reagent was added to the 96-well plate, and the relative light unit (RLU) of each well was measured. The RLU values for the wells with the concentration of 0 on the 96-well plates were averaged to calculate the baseline Ave RLU^Vehicle. The activity of AHR induced by the test compounds at different concentrations was calculated according to Formula (1) based on the ratio of RLU^Test Cmpd from the experimental groups to the baseline Ave RLU^Vehicle, to determine the activation fold.
The activation fold and the corresponding compound concentration were fitted using GraphPad Prism 9 with [Agonist] vs. response—variable slope (four parameters) to calculate the EC50 of the compound for AHR activation.

rat AHR = target: T2, rat AHR (Rattus norvegicus, UniProt P41738); test: Rat AHR agonist luciferase assay (6x XRE Nano-luc reporter in H-4-II-E cells); format: cell-based; settings: AHR activation, rat hepatoma H-4-II-E reporter cells, incubated 4 to 24 hours; read-out: H4IIE EC50
T2 construct: The reporter gene was introduced into a genome of rat hepatoma H-4-II-E cells via lentiviral infection; endogenous in cells; host or cells: H-4-II-E (rat hepatoma) with a lentivirally integrated 6x XRE Nano-luc reporter
T2 sequence (P41738 10-853): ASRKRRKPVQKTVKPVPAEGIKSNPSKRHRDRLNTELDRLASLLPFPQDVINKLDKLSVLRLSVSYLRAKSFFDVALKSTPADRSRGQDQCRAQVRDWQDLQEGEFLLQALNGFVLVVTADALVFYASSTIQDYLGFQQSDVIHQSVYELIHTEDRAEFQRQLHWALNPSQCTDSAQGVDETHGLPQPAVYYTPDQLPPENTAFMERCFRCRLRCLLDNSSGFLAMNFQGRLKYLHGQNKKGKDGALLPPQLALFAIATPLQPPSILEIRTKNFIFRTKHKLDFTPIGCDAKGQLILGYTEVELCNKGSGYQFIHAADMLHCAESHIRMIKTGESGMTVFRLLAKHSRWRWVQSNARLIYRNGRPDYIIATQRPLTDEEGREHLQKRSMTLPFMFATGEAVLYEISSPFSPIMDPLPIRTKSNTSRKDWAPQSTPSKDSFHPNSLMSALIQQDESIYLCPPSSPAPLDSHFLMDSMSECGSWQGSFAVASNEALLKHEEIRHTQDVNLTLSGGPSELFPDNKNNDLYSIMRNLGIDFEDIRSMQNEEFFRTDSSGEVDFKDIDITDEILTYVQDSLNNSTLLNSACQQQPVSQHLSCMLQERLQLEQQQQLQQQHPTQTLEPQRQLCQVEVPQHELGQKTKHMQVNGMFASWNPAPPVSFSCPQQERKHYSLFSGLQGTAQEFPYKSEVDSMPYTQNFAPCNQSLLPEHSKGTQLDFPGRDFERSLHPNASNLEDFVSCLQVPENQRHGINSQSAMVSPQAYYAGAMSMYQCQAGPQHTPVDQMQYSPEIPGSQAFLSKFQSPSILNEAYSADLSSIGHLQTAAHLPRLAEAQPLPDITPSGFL
Description: A lentivirus containing the reporter gene was generated by co-transfecting the transfer plasmid with packaging plasmids into 293T cells using conventional transfection methods in the art, followed by purification. The reporter gene was introduced into a genome of rat hepatoma H-4-II-E cells via lentiviral infection, and cells stably expressing the reporter gene were selected with puromycin for the rat AHR agonist luciferase assay.

mouse AHR = mouse AHR (Mus musculus, UniProt P30561); test: Mouse AHR agonist luciferase assay (6x XRE Nano-luc reporter in Hepa1-6 cells);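 further: stable Hepa1-6 reporter line, 4–24 h exposure, 11-point serial dilution, Nano-Glo luminescence as fold over medium-only baseline, EC50 from four-parameter fit of activation fold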
Description: The reporter gene plasmid was transfected into mouse hepatoma Hepa1-6 cells by a conventional liposome transfection method in the art, and stably expressing cells were selected by puromycin for the mouse AHR agonist luciferase assay.
On day one, the stably expressing reporter gene Hepa1-6 cell line was counted and seeded into a white opaque 96-well plate at a density of 1×10^4 cells per well −8×10^4 cells per well using 100 μL of phenol red-free Dulbecco's Modified Eagle Medium (DMEM) (DMEM without phenol red, 10% fetal bovine serum). The cells were cultured in an incubator maintained at 37° C. with 5% CO2 for 24 hours.
Test compounds were prepared as 10 mM stock solutions in DMSO and stored at 4° C. protected from light. Before treatment, the compound stock solutions, positive control compounds (e.g., dioxin, ITE, or kynurenine), and a negative control compound (DMSO) were subjected to preliminary dilution (determined based on pre-experiments) with complete medium without tryptophan and phenol red, followed by 3- to 20-fold serial dilutions to 11 concentration points to obtain 10× dilution solutions. When treating the cells, 10 μL of medium was first aspirated from the 96-well plate containing the seeded cells, and then 10 μL of the serially diluted 10× dilution solution was added. Each compound was tested in duplicate, and each duplicate experiment included a well with a concentration of 0 (i.e., containing only medium) to determine the baseline. The reporter cells were returned to the incubator and incubated for 4 to 24 hours after treatment.
After treatment, 100 μL/well of Nano-Glo Luciferase Assay Reagent was added to the 96-well plate, and the RLU of each well was measured. The RLU values for the wells with the concentration of 0 on the 96-well plates were averaged to calculate the baseline Ave RLU^Vehicle The activity of AHR induced by the test compounds at different concentrations was calculated according to Formula (1) based on the ratio of RLU^Test Cmpd from the experimental groups to the baseline Ave RLU^Vehicle, to determine the activation fold.
The activation fold and the corresponding compound concentration were fitted using GraphPad Prism 9 with [Agonist] vs. response—variable slope (four parameters) to determine the EC50 of the compound for AHR activation.

[1] = read-out: HepG2 EC50, AHR activation, human hepatoma HepG2 reporter cells, incubated 4 to 24 hours

mouse AHR, sequence (P30561 10-805 limits assumed): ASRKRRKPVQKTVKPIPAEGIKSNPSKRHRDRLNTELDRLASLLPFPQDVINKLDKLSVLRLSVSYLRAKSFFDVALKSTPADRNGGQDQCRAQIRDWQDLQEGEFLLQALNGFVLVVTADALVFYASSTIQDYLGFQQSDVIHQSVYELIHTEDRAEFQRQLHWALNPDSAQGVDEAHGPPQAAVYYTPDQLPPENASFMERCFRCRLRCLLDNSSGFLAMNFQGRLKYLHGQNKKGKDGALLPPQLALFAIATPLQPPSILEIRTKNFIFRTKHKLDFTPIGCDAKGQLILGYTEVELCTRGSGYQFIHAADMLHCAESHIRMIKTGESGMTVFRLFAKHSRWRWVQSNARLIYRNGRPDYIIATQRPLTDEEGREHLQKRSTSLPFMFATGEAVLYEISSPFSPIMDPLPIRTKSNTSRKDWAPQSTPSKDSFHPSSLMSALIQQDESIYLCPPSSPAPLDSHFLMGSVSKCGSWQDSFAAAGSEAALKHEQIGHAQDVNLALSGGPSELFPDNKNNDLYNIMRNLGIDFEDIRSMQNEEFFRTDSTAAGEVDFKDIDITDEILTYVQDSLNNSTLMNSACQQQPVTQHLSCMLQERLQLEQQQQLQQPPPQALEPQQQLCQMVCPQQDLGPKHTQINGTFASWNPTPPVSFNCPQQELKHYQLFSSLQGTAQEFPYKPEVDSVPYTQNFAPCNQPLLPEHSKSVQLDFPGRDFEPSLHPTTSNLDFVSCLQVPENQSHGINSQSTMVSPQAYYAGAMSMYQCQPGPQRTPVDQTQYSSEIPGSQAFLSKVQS
mouse AHR, sequence (P53762 whole entry partner): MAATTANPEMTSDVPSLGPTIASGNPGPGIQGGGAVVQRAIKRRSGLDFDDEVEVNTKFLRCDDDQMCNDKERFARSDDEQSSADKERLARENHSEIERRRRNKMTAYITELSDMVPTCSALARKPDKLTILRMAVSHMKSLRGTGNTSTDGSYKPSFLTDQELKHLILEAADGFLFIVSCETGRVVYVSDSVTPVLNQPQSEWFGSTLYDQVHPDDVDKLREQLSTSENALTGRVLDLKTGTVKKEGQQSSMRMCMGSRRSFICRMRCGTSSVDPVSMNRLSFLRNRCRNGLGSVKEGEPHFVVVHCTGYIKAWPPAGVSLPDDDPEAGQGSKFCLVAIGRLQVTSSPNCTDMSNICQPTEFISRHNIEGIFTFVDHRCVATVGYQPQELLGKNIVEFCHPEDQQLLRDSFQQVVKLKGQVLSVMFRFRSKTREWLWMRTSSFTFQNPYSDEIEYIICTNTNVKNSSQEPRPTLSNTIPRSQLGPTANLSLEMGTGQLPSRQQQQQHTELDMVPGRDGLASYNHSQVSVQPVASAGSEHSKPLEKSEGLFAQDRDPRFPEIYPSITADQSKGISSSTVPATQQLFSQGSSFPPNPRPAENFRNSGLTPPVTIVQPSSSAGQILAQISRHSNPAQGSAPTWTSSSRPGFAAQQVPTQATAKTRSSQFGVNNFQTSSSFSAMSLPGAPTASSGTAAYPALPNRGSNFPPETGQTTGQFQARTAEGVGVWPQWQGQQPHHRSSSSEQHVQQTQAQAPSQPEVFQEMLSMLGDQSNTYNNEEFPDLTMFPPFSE

C[C@H]1C[C@H](c2csc(C(=O)c3c[nH]c4ccccc34)n2)C(=O)O1 [Compound 8-trans-2]
EC50 (human AHR; [1]): < 500 nM

O=C(c1nc(C2CCOC2=O)cs1)c1c[nH]c2ccccc12 (centres unmarked) [Compound 1, 3-[2-(1H-indole-3-carbonyl)-1,3-thiazol-4-yl]tetrahydrofuran-2-one]
EC50 (rat AHR): ≤ 10 nM
EC50 (human AHR): < 500 nM
EC50 (mouse AHR): < 100 nM

CN1CCC(c2csc(C(=O)c3c[nH]c4ccccc34)n2)C1=O (centres unmarked) [Compound 7]
EC50 (rat AHR): 2000 to 100000 nM
EC50 (human AHR): < 500 nM

C[C@@H]1C[C@@H](c2csc(C(=O)c3c[nH]c4ccccc34)n2)C(=O)O1 [Compound 8-trans-1]
EC50 (human AHR; [1]): < 500 nM

C[C@H]1C[C@@H](c2csc(C(=O)c3c[nH]c4ccccc34)n2)C(=O)O1 [Compound 8-cis-2]
EC50 (human AHR; [1]): < 500 nM

CN1CCC(c2csc(C(=O)c3c[nH]c4cc5c(cc34)OCO5)n2)C1=O (centres unmarked) [Compound 7-6]
EC50 (rat AHR): 2000 to 100000 nM
EC50 (human AHR): < 500 nM
EC50 (mouse AHR): < 100 nM

COc1ccc2[nH]cc(C(=O)c3nc(C4CC(C)OC4=O)cs3)c2c1 (centres unmarked) [Compound 8-5]
EC50 (human AHR): < 500 nM
EC50 (mouse AHR): < 100 nM

CN1CCC(c2csc(C(=O)c3c[nH]c4cc(F)ccc34)n2)C1=O (centres unmarked) [Compound 7-2]
EC50 (rat AHR): 2000 to 100000 nM
EC50 (human AHR): < 500 nM

COCCOCCOCCOCC(=O)OCn1cc(C(=O)c2nc(C3CCOC3=O)cs2)c2ccccc21 (centres unmarked) [Compound 14, 3,6,9,12-tetraoxatridecanoic acid {3-[4-(2-oxotetrahydrofuran-3-yl)thiazole-2-carbonyl]-1H-indol-1-yl}methyl ester]
EC50 (human AHR): 500 to 2000 nM
EC50 (mouse AHR): 100 to 2000 nM

O=C(c1nc(C2(O)CCOC2=O)cs1)c1c[nH]c2ccc(F)cc12 (centres unmarked) [Compound 2-4]
EC50 (human AHR): < 500 nM
EC50 (mouse AHR): < 100 nM

COc1ccc2c(C(=O)c3nc(C4(F)CCOC4=O)cs3)c[nH]c2c1 (centres unmarked) [Compound 3-3]
EC50 (human AHR): < 500 nM
EC50 (mouse AHR): < 100 nM

Cc1ccc2c(C(=O)c3nc(C4CCOC4=O)cs3)c[nH]c2c1 (centres unmarked) [Compound 1-8]
EC50 (human AHR): < 500 nM

O=C(c1nc(C2(F)CCOC2=O)cs1)c1c[nH]c2ccccc12 (centres unmarked) [Compound 3]
EC50 (human AHR): < 500 nM
EC50 (mouse AHR): < 100 nM

O=C(c1nc(C2(Cl)CCOC2=O)cs1)c1c[nH]c2cc(F)ccc12 (centres unmarked) [Compound 4-2]
EC50 (rat AHR): ≤ 10 nM
EC50 (human AHR): < 500 nM
EC50 (mouse AHR): < 100 nM

CC1CC(c2csc(C(=O)c3c[nH]c4cc(F)ccc34)n2)C(=O)O1 (centres unmarked) [Compound 8-2]
EC50 (human AHR): < 500 nM
EC50 (mouse AHR): < 100 nM

O=C(c1nc(C2CCOC2=O)cs1)c1c[nH]c2ccccc12 (single isomer, unassigned) [Compound 1-isomer-B]
EC50 (rat AHR): ≤ 10 nM
EC50 (mouse AHR; read-out: Hepa 1-6 EC50, AHR activation, mouse hepatoma Hepa1-6 reporter cells, incubated 4 to 24 hours): < 100 nM

O=C(c1nc(C2CCOC2=O)cs1)c1cn(COP(=O)(O)O)c2ccccc12 (centres unmarked) [Compound 12, {3-[4-(2-oxotetrahydrofuran-3-yl)thiazole-2-carbonyl]-1H-indol-1-yl}methylphosphoric acid]
EC50 (human AHR): 500 to 2000 nM
EC50 (mouse AHR): 100 to 2000 nM

COc1ccc2c(C(=O)c3nc(C4(Cl)CCOC4=O)cs3)c[nH]c2c1 (centres unmarked) [Compound 4-3]
EC50 (human AHR): < 500 nM

O=C(c1nc(C2CCOC2=O)cs1)c1c[nH]c2ccc(F)cc12 (centres unmarked) [Compound 1-4]
EC50 (rat AHR): ≤ 10 nM
EC50 (human AHR): < 500 nM
EC50 (mouse AHR): < 100 nM

O=C(c1nc(C2(Cl)CCOC2=O)cs1)c1c[nH]c2ccc(F)cc12 (centres unmarked) [Compound 4-4]
EC50 (human AHR): < 500 nM

O=C1OCC=C1c1csc(C(=O)c2c[nH]c3ccccc23)n1 [Compound 5]
EC50 (human AHR): < 500 nM
EC50 (mouse AHR): < 100 nM

COc1ccc2c(C(=O)c3nc(C4CCN(C)C4=O)cs3)c[nH]c2c1 (centres unmarked) [Compound 7-3]
EC50 (rat AHR): 2000 to 100000 nM
EC50 (human AHR): < 500 nM

O=C(c1nc(C2(F)CCOC2=O)cs1)c1c[nH]c2ccc(F)cc12 (centres unmarked) [Compound 3-4]
EC50 (human AHR): < 500 nM
EC50 (mouse AHR): 100 to 2000 nM

N#Cc1ccc2c(C(=O)c3nc(C4CCOC4=O)cs3)c[nH]c2c1 (centres unmarked) [Compound 1-9]
EC50 (human AHR): < 500 nM

CC(C)[C@H](N)C(=O)OCn1cc(C(=O)c2nc(C3CCOC3=O)cs2)c2ccccc21 (some centres unmarked) [Compound 13, hydrochloride]
EC50 (human AHR): 500 to 2000 nM
EC50 (mouse AHR): 100 to 2000 nM

O=C(c1nc(C2CCOC2=O)cs1)c1cn(P(=O)(O)O)c2ccccc12 (centres unmarked) [Compound 11]
EC50 (human AHR): 500 to 2000 nM
EC50 (mouse AHR): 100 to 2000 nM

CC1CC(c2csc(C(=O)c3c[nH]c4cc5c(cc34)OCO5)n2)C(=O)O1 (centres unmarked) [Compound 8-6]
EC50 (human AHR): < 500 nM
EC50 (mouse AHR): < 100 nM

COc1ccc2[nH]cc(C(=O)c3nc(C4(O)CCOC4=O)cs3)c2c1 (centres unmarked) [Compound 2-5]
EC50 (human AHR): < 500 nM
EC50 (mouse AHR): < 100 nM

O=C(c1nc(C2CCOC2=O)cs1)c1c[nH]c2cc3c(cc12)OCO3 (centres unmarked) [Compound 1-6]
EC50 (rat AHR): ≤ 10 nM
EC50 (human AHR): < 500 nM
EC50 (mouse AHR): < 100 nM

CC(C)[C@H](N)C(=O)n1cc(C(=O)c2nc(C3CCOC3=O)cs2)c2ccccc21 (stereo partly drawn) [Compound 9, 3-[2-({1-[(2S)-2-amino-3-methylbutanoyl]indol-3-yl}carbonyl)-1,3-thiazol-4-yl]tetrahydrofuran-2-one hydrochloride]
EC50 (human AHR): 500 to 2000 nM
EC50 (mouse AHR): 100 to 2000 nM

O=C(c1nc(C2(Cl)CCOC2=O)cs1)c1c[nH]c2ccccc12 (centres unmarked) [Compound 4]
EC50 (rat AHR): ≤ 10 nM
EC50 (human AHR): < 500 nM
EC50 (mouse AHR): < 100 nM

COc1ccc2c(C(=O)c3nc(C4(O)CCOC4=O)cs3)c[nH]c2c1 (centres unmarked) [Compound 2-3]
EC50 (rat AHR): ≤ 10 nM
EC50 (human AHR): < 500 nM
EC50 (mouse AHR): < 100 nM

COc1ccc2[nH]cc(C(=O)c3nc(C4(F)CCOC4=O)cs3)c2c1 (centres unmarked) [Compound 3-5]
EC50 (human AHR): 500 to 2000 nM

O=C1OCC(O)=C1c1csc(C(=O)c2c[nH]c3ccccc23)n1 [Compound 6]
EC50 (human AHR): 500 to 2000 nM

O=C(c1nc(C2CCOC2=O)cs1)c1c[nH]c2cc(Cl)ccc12 (centres unmarked) [Compound 1-7]
EC50 (human AHR): < 500 nM

O=C(c1nc(C2(F)CCOC2=O)cs1)c1c[nH]c2cc(F)ccc12 (centres unmarked) [Compound 3-2]
EC50 (human AHR): < 500 nM
EC50 (mouse AHR): < 100 nM

COc1ccc2c(C(=O)c3nc(C4CC(C)OC4=O)cs3)c[nH]c2c1 (centres unmarked) [Compound 8-3]
EC50 (human AHR): < 500 nM
EC50 (mouse AHR): < 100 nM

CN1CCC(c2csc(C(=O)c3c[nH]c4ccc(F)cc34)n2)C1=O (centres unmarked) [Compound 7-4]
EC50 (rat AHR): 2000 to 100000 nM
EC50 (human AHR): < 500 nM

CC1CC(c2csc(C(=O)c3c[nH]c4ccc(F)cc34)n2)C(=O)O1 (centres unmarked) [Compound 8-4]
EC50 (human AHR): < 500 nM
EC50 (mouse AHR): < 100 nM

C[C@@H]1C[C@H](c2csc(C(=O)c3c[nH]c4ccccc34)n2)C(=O)O1 [Compound 8-cis-1]
EC50 (human AHR; [1]): < 500 nM

O=C(c1nc(C2CCOC2=O)cs1)c1cn(CO)c2ccccc12 (centres unmarked) [Compound 10, 3-{2-[1-(hydroxymethyl)indole-3-carbonyl]thiazol-4-yl}tetrahydrofuran-2-one]
EC50 (human AHR): 500 to 2000 nM
EC50 (mouse AHR): 100 to 2000 nM

COCCOCCOCCOCC(=O)n1cc(C(=O)c2nc(C3CCOC3=O)cs2)c2ccccc21 (centres unmarked) [Compound 15, 3-{2-[1-(3,6,9,12-tetraoxatridecanoyl)-1H-indole-3-carbonyl]thiazol-4-yl}dihydrofuran-2(3H)-one]
EC50 (human AHR): 500 to 2000 nM
EC50 (mouse AHR): 100 to 2000 nM
